Some test systems named below: KM20L2 colon; CCRF-CEM leukemia; SNB-19 CNS; ACHN renal; RPMI-8226 leukemia; 786-0 renal; MOLT-4 leukemia; M14 melanoma; SNB-78 CNS; T-47D breast; BT-549 breast; MDA-N.
Common to all, as to experiment: growth of human tumour cells (NCI), 48 h

Data on 13 molecules can be found in PubChem BioAssay (NCI).

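How tested: cells in 96-well plates exposed to compound for 48 hours at five concentrations. GI50 = concentration required for 50% inhibition of growth. Definition used: TGI = concentration required for complete inhibition of growth.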 Where only a bound is given, the exact number is not on record here.

For the molecule `Cc1ccc(S(=O)(=O)Nc2cccc3c(=O)[nH]cnc23)cc1`, the TGI in the experiment with KM20L2 colon is above 100 µM; in the experiment with CCRF-CEM leukemia it was above 100 µM; in the experiment with SNB-19 CNS, above 100 µM; in the experiment with ACHN renal it was above 100 µM; in the experiment on RPMI-8226 leukemia it was 97.7 µM; in the experiment with 786-0 renal, above 100 µM. For the same molecule, the TGI with MOLT-4 leukemia, in the experiment with M14 melanoma and in the experiment with SNB-78 CNS was above 100 µM in each case.
Take `Cc1n(CC(C)C)c2c([n+]1C)C(=O)c1ccccc1C2=O`: the TGI came out at 1.6 µM with KM20L2 colon; 27 µM with CCRF-CEM leukemia; 0.647 µM in the experiment with SNB-19 CNS; 0.441 µM with T-47D breast; 3.53 µM in the experiment on ACHN renal; 8.37 µM with RPMI-8226 leukemia. The TGI worked out at 3.41 µM in the experiment with 786-0 renal; 0.61 µM with BT-549 breast; 0.955 µM in the experiment with MOLT-4 leukemia; 1.06 µM with M14 melanoma; 3.48 µM in the experiment on SNB-78 CNS; 0.314 µM in the experiment on MDA-N.
Take `Cc1ccc2c(ccc(/C=C/c3ccc(O)c4ncccc34)[n+]2C)c1`: the TGI with KM20L2 colon is 20.1 µM; with CCRF-CEM leukemia it was above 70 µM; with SNB-19 CNS, 36.9 µM; in the experiment with T-47D breast, above 32.1 µM; with ACHN renal, 33.1 µM; in the experiment with RPMI-8226 leukemia it was 70.2 µM. The TGI with 786-0 renal is 26.7 µM; in the experiment on BT-549 breast, above 29 µM; with MOLT-4 leukemia, above 82.2 µM; with M14 melanoma, 40.3 µM; in the experiment on SNB-78 CNS it was 27.5 µM; in the experiment with MDA-N, above 44.9 µM.
`COC1OC(CS(=O)(=O)O)C(O)C(O)C1O` (configuration not stated): the TGI in the experiment on CCRF-CEM leukemia, with SNB-19 CNS, in the experiment with T-47D breast, in the experiment on RPMI-8226 leukemia, in the experiment on BT-549 breast and with MOLT-4 leukemia was above 100 µM in each case. Moreover, the TGI in the experiment with M14 melanoma and in the experiment with MDA-N was above 100 µM throughout.
With `CC1(C)[C@@H]2CC[C@]1(C)[C@H](OC(=O)CSC#N)C2`, the TGI is above 100 µM in the experiment on SNB-19 CNS; above 100 µM in the experiment on T-47D breast; above 100 µM with ACHN renal; 34.1 µM with 786-0 renal; above 100 µM in the experiment with BT-549 breast; above 100 µM in the experiment on M14 melanoma. The molecule also showed a TGI in the experiment on MDA-N above 100 µM.
In the case of `O=S(=O)(O)c1ccc(N=Nc2ccc3c(S(=O)(=O)O)cccc3c2O)c2ccccc12`, the TGI in the experiment with SNB-19 CNS, in the experiment on T-47D breast, with ACHN renal, in the experiment on RPMI-8226 leukemia, in the experiment on 786-0 renal and in the experiment on BT-549 breast was above 100 µM in each case. Also, the TGI with M14 melanoma and in the experiment with MDA-N was above 100 µM each time.
In the experiment with KM20L2 colon, `N#C[S-].[La+3].c1cnc2c(c1)ccc1cccnc12.c1cnc2c(c1)ccc1cccnc12.c1cnc2c(c1)ccc1cccnc12` came in with a GI50 of 0.986 µM. In addition, the TGI is 16.4 µM with KM20L2 colon; 2.58 µM with CCRF-CEM leukemia; 20.9 µM in the experiment on SNB-19 CNS; 12.9 µM in the experiment on ACHN renal; above 100 µM with RPMI-8226 leukemia; 11.7 µM in the experiment with 786-0 renal. In addition, the TGI turned out to be 6.55 µM in the experiment with MOLT-4 leukemia and 3.57 µM in the experiment on M14 melanoma.
Take `O=C1C=C(C2OC(CO)C(O)C2O)C(=O)N1` (configuration not stated): the TGI in the experiment with KM20L2 colon was above 100 µM; with CCRF-CEM leukemia, above 89.5 µM; in the experiment with SNB-19 CNS it was above 100 µM; in the experiment on RPMI-8226 leukemia it was above 87.8 µM; in the experiment with MOLT-4 leukemia, above 100 µM; with SNB-78 CNS it was above 100 µM.
With `C=C1C(=O)OC2/C=C(\C(=O)O)CC/C=C(\C)CC(OC(=O)/C=C(\C)CC)C12` (configuration not stated), the TGI in the experiment on KM20L2 colon was 39.5 µM; with CCRF-CEM leukemia it was above 100 µM; in the experiment with SNB-19 CNS it was 33.5 µM; with ACHN renal it was 46.2 µM; in the experiment on RPMI-8226 leukemia it was above 100 µM; in the experiment on MOLT-4 leukemia, above 100 µM. In addition, the TGI was 31.2 µM in the experiment on M14 melanoma and 61 µM in the experiment on SNB-78 CNS.
For the molecule `O=C(c1ccccc1)c1ccc2n[se]nc2c1`, the TGI with KM20L2 colon, with CCRF-CEM leukemia, in the experiment on SNB-19 CNS, in the experiment with ACHN renal, in the experiment on RPMI-8226 leukemia and in the experiment on MOLT-4 leukemia was above 100 µM in each case. Further, the TGI with M14 melanoma and in the experiment with SNB-78 CNS was above 100 µM in each case.
For the molecule `CCCC(C)c1ccc(OCCCCCCN2CCNCC2)cc1` (configuration not stated), the GI50 with CCRF-CEM leukemia is 2.44 µM; with SNB-19 CNS, 3.2 µM; in the experiment on T-47D breast, 1.71 µM; in the experiment on ACHN renal, 2.23 µM; with BT-549 breast, 3.08 µM; in the experiment with MOLT-4 leukemia, 1.52 µM. The TGI is 7.46 µM in the experiment with CCRF-CEM leukemia; 13.6 µM in the experiment with SNB-19 CNS; 3.72 µM with T-47D breast; 5.32 µM in the experiment on ACHN renal; 12.4 µM in the experiment with BT-549 breast; 3.48 µM in the experiment on MOLT-4 leukemia.
As for `OC(CC1CCCCN1)c1ccc2c(c1)oc1ccccc12` (configuration not stated), the TGI in the experiment on CCRF-CEM leukemia, with SNB-19 CNS, in the experiment on T-47D breast, in the experiment on ACHN renal, in the experiment with RPMI-8226 leukemia and in the experiment on 786-0 renal was above 100 µM throughout. The TGI with BT-549 breast was above 100 µM; in the experiment on MOLT-4 leukemia, 67.1 µM; in the experiment with M14 melanoma, 45 µM; with MDA-N, above 100 µM.
On to `CN(C)/C=C/C(=CC=[N+](C)C)/C=C/N(C)C`, for which the TGI with CCRF-CEM leukemia, in the experiment on SNB-19 CNS, in the experiment with ACHN renal, in the experiment on RPMI-8226 leukemia, in the experiment on 786-0 renal and with MOLT-4 leukemia was above 100 µM throughout. The TGI in the experiment on M14 melanoma and in the experiment with SNB-78 CNS was above 100 µM in each case.
